Experimental data published in ChEMBL document CHEMBL1201862, “PubChem BioAssay data set” (2004).
Active and inactive are the calls of the source.

Key:
[1] = target: Procathepsin L (Homo sapiens, UniProt P07711)
[2] = target: T1, Aspartyl aminopeptidase (Plasmodium falciparum 3D7, UniProt Q8I2J3)
T1 sequence (Q8I2J3 whole entry): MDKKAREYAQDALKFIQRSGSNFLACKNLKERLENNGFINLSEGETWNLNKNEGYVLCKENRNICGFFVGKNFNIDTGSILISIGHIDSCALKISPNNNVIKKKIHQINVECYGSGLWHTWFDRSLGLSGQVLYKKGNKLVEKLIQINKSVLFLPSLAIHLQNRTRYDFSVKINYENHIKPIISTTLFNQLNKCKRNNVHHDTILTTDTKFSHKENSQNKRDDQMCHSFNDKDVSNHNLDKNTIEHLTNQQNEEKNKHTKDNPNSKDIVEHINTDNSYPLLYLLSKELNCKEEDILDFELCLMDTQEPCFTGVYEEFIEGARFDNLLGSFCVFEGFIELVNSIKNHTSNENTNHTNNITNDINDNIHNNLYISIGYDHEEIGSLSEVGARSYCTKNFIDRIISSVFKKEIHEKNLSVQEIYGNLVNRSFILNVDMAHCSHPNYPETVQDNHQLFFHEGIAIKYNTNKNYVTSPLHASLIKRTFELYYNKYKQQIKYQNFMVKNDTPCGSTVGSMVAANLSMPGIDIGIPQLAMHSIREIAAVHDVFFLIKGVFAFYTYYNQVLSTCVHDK

[3] = target: C-C chemokine receptor type 6 (Homo sapiens, UniProt P51684); test: antagonism of CCR6 beta-arrestin recruitment – cell-based, luminescent beta-arrestin readout, dose response (AID 504728); type: functional
Chain of C-C chemokine receptor type 6 (P51684 whole entry): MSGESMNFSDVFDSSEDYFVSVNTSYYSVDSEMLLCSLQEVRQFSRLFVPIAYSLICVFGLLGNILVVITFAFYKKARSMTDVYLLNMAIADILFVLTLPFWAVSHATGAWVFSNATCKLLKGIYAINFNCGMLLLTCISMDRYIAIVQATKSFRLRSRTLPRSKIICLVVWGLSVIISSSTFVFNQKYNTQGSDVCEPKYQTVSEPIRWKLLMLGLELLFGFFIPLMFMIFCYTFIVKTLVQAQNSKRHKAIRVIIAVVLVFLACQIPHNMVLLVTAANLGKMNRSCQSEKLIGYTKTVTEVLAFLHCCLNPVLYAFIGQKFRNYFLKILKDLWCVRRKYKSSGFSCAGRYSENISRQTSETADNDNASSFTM

[4] = Luminescence Cell-Based Dose Response HTS to Identify Activators of Luciferase Translation or Activity in H4 […] Cells. [Related pubchem assays: 1829 (Project Summary), 1814 (Primary HTS)]; type: functional
[5] = tested on: H4; test: Luminescence Cell-Based Dose Response HTS to Identify Activators of 5'UTR Stem-Loop Driven Prion Protein mRNA Translation in H4 Neuroglioblastoma Cells. [Related pubchem assays: 1829 (Project Summary), 1814 (Primary HTS)]; type: functional; details: Homo sapiens
[6] = Luminescence Cell-Based Dose Confirmation HTS to Identify Activators of 5'UTR Stem-Loop Driven Alpha-Synuclein mRNA Translation in H4 Neuroglioblastoma Cells. [Related pubchem assays: 1829 (Project Summary), 1814 (Primary HTS)]; type: functional
[7] = target: Beta-galactosidase (Escherichia coli, UniProt Q8VNN2); test: detection-enzyme interference by beta-gal modulators – biochemical, E. coli enzyme, set 3, artefact control for CCR6 antagonist project, dose response (AID 504712); type: functional
Chain of Beta-galactosidase (Q8VNN2 whole entry): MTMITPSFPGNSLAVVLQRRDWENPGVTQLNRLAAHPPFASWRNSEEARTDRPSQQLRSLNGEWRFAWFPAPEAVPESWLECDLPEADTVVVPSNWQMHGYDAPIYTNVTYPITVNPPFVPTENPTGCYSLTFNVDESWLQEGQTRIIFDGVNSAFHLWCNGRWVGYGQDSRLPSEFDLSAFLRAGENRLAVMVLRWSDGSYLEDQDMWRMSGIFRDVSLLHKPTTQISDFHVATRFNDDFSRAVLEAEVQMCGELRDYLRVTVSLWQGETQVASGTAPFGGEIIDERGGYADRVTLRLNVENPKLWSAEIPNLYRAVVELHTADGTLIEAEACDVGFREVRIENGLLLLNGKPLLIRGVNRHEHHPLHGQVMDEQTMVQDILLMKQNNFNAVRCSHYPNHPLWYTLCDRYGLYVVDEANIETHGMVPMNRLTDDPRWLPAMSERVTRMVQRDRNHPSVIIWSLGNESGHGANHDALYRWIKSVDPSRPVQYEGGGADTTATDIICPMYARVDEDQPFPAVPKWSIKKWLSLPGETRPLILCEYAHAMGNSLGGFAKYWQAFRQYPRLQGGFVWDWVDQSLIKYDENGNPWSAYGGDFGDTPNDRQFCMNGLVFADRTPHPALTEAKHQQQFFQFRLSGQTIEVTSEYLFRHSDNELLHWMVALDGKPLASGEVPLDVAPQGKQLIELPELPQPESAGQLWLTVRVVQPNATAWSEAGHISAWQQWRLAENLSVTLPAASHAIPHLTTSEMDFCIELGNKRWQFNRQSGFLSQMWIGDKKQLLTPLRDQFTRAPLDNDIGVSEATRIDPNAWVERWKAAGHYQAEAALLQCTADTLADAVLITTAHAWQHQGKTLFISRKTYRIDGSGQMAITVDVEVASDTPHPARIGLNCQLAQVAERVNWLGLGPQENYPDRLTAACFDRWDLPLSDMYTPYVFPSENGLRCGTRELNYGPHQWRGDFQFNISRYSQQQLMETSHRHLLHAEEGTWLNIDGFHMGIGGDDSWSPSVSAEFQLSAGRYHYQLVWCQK

[8] = viability of uninfected HEp-2 cells – cell-based, HTS, cytotoxicity control for RSV inhibitor project, dose response (AID 2410); type: functional; details: human respiratory syncytial virus
[9] = cells
[10] = tested on: BJ; test: BJ-TERT fibroblast viability loss – cell-based, RAS-independent, luminescence, dose response (AID 1933); type: functional; details: Homo sapiens
[11] = target: T2, SUMO-activating enzyme (Homo sapiens, UniProt Q9UBT2); test: blockers of UBC9-mediated SUMO conjugation – biochemical, AlphaScreen, SUMOylation inhibitor project, confirmation (AID 2018); type: functional
T2 sequence (Q9UBE0 whole entry): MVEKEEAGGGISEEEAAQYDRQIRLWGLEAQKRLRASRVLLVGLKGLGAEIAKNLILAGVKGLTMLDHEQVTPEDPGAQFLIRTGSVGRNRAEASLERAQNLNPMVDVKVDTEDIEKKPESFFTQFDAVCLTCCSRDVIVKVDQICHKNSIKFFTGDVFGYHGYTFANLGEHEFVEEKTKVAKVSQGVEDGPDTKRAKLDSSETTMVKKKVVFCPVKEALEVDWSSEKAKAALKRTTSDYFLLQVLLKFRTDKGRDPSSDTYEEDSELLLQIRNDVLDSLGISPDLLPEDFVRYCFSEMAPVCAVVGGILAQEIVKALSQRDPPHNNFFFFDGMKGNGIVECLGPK
T2 sequence (Q9UBT2 whole entry): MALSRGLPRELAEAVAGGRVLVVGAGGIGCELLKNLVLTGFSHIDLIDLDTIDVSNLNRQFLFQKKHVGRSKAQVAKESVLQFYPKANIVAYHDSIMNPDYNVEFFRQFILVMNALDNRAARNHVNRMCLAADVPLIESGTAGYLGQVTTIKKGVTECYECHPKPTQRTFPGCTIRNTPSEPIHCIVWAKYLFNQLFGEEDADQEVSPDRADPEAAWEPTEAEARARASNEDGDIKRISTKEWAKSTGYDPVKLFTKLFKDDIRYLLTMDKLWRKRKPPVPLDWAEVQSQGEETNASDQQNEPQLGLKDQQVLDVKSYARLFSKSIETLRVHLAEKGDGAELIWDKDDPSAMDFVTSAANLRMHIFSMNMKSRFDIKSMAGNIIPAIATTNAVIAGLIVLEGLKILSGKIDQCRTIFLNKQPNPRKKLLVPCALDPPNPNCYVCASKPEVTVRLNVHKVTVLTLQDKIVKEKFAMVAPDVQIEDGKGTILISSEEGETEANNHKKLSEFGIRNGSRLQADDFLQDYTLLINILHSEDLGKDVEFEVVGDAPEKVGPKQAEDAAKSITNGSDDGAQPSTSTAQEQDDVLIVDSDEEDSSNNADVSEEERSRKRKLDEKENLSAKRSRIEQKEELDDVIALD

[12] = tested on: BJ; test: BJ-TERT-LT-ST fibroblast viability loss – cell-based, RAS-independent, luminescence, dose response (AID 1935); type: functional; details: Homo sapiens;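 further: BJ fibroblasts immortalized with TERT plus LT and ST oncogenes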
[13] = target: T2, SUMO-activating enzyme; test: blockers of SAE1/SAE2–UBC9 SUMO transfer – biochemical, HTRF, uHTS, primary screen (AID 2006); type: protein-complex assay
[14] = target: Galanin receptor type 2 (Homo sapiens, UniProt O43603); test: Dose Response cell-based high-throughput screening assay to identify agonists of galanin receptor 2 (GALR2). [Related pubchem assays: 864 ]; type: functional
Chain of Galanin receptor type 2 (O43603 whole entry): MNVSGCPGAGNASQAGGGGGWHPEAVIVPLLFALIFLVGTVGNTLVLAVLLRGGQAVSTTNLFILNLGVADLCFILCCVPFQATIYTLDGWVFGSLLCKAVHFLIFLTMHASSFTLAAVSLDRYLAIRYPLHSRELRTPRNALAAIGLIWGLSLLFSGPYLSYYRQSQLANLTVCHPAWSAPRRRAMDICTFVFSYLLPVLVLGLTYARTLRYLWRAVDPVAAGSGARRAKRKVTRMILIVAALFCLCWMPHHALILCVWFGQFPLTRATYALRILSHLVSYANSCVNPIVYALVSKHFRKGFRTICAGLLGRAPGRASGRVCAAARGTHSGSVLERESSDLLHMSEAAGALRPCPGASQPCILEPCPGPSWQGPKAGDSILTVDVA

[15] = tested on: BJ; test: cells; type: functional, cell-based; details: Homo sapiens
[16] = DRD fibroblast viability loss – cell-based, non-viral oncogenic, luminescence, dose response (AID 1934); type: functional; details: Homo sapiens
[17] = target: Mothers against decapentaplegic homolog 3 (Homo sapiens, UniProt P84022); test: blockers of Smad3 complex formation in lysate – cell lysate, secondary confirmation, chemiluminescent ELISA, HEK293 lysate, dose response (AID 1058); type: functional
Chain of Mothers against decapentaplegic homolog 3 (P84022 whole entry): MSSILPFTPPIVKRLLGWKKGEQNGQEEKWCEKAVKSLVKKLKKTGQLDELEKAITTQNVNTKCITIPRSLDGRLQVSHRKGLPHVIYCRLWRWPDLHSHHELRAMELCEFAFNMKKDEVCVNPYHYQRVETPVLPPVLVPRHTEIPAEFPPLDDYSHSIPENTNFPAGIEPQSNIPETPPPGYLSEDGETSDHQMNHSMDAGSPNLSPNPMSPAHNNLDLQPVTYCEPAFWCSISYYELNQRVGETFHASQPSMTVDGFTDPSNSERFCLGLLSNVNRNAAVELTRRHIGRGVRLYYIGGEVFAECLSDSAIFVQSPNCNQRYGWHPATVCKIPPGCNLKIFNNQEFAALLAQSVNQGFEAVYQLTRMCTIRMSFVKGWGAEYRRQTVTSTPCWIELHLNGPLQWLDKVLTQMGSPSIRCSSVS

[18] = tested on: Staphylococcus aureus; test: Inhibitors of Bacterial Quorum Sensing Structure Activity Relationship (SAR) Analysis: Dose Response Assay. [Related pubchem assays: 700, 527 ]; type: functional, organism-based
[19] = target: Cytochrome P450 3A4 (Homo sapiens, UniProt P08684); details: Potency;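 further: confirmatory qHTS run detecting inhibitors and substrates of CYP3A4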
[20] = target: Cytochrome P450 2C9 (Homo sapiens, UniProt P11712); details: Potency
Chain of Cytochrome P450 2C9 (P11712 whole entry): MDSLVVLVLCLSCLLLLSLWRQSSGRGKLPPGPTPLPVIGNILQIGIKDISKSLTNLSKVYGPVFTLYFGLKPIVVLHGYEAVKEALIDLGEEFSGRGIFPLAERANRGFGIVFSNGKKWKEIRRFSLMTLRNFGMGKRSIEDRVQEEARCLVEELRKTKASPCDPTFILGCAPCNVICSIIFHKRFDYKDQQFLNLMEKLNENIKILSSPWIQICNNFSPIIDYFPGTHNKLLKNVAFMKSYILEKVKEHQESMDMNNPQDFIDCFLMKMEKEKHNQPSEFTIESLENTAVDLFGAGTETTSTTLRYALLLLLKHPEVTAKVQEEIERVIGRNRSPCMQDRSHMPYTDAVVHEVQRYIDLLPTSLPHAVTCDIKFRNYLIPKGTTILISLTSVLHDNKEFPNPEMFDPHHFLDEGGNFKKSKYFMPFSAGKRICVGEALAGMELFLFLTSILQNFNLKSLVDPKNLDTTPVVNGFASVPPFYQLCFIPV

[21] = Luminescence-based dose response cell-based high throughput screening assay for cytotoxic compounds using the IEC-6 intestinal epithelial cell line. [Related pubchem assays: 1858 (Summary AID.), 1825 (Counterscreen.), 1907 (Confirmation screen.)]; type: functional
[22] = Counterscreen for IDE inhibitors: Luminescence-based cell-based high throughput dose response assay to identify compounds that are cytotoxic to HEK cells. [Related pubchem assays: 434962 (Primary screen (IDE inhibitors in singlicate)), 449730 (Counterscreen (Cytotoxicity in triplicate)), 435028 (Confirmation (IDE inhibitors in triplicate)) …; type: functional; details: HEK293
[23] = target: Dual specificity tyrosine-phosphorylation-regulated kinase 1A (Rattus norvegicus, UniProt Q63470); type: biochemical, Homo sapiens
[24] = target: T3, Insulin-degrading enzyme (Homo sapiens, UniProt P14735); test: Dose Response: Fluorescence polarization-based cell-based high throughput dose response assay for inhibitors of insulin-degrading enzyme (IDE). [Related pubchem assays: 434962 (Primary screen (IDE inhibitors in singlicate)), 449730 (Counterscreen (Cytotoxicity in triplicate)), 435028 (Confirmation (IDE inhibitors in triplicate)), 434984 (Summary …; type: functional
T3 sequence (P14735 whole entry): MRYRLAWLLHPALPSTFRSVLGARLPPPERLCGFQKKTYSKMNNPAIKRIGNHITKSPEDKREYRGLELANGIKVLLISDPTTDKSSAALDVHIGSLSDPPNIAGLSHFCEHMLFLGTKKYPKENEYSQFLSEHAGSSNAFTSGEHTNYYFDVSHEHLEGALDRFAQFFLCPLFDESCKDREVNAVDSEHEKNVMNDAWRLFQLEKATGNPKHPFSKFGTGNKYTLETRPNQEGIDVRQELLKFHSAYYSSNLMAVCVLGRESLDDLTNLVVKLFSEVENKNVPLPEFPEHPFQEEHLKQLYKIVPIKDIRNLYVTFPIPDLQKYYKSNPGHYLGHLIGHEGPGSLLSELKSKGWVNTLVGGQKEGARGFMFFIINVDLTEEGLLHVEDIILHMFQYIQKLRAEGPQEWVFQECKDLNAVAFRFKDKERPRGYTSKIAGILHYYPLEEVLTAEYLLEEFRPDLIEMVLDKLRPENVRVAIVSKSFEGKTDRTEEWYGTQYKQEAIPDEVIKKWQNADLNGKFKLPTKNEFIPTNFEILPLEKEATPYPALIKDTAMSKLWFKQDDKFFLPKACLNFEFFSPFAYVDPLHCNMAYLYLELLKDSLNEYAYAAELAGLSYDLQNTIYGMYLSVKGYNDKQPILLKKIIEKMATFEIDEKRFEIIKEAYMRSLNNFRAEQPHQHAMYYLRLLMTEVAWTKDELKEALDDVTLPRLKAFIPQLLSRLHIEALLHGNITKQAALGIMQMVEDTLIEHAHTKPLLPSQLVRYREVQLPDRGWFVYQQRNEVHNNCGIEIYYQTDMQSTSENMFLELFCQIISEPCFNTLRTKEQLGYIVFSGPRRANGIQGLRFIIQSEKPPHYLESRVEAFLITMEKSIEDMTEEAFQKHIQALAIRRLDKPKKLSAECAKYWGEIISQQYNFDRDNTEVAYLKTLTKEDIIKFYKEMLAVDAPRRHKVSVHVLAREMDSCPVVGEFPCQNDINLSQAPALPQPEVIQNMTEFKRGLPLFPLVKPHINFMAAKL

[25] = target: Oxytocin receptor (Homo sapiens, UniProt P30559); test: Fluorescence-based cell-based high throughput dose response assay for agonists of the Oxytocin Receptor (OXTR). [Related pubchem assays: 2435 (Primary screen (OXTR agonists in singlicate)), 434991 (Counterscreen (V1R agonists in triplicate)), 2482 (Summary (OXTR agonists)), 434963 (Confirmation screen (OXTR agonists in triplicate))]; type: functional
Chain of Oxytocin receptor (P30559 whole entry): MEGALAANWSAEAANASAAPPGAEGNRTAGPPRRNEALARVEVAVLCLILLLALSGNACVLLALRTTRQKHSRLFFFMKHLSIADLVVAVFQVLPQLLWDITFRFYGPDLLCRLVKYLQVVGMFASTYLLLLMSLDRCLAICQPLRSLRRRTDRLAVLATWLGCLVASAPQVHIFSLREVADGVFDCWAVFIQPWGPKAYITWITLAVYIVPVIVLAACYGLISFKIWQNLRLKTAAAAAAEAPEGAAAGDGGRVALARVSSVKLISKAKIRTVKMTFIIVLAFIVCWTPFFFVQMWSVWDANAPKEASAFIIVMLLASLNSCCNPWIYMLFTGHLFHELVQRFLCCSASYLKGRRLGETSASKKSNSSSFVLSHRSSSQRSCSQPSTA

[26] = target: Vasopressin V1a receptor (Homo sapiens, UniProt P37288); test: Counterscreen for Oxytocin Receptor (OXTR) agonists: Fluorescence-based cell-based high throughput dose response assay to identify agonists of the vasopressin 1 receptor (V1R). [Related pubchem assays: 2435 (Primary screen (OXTR agonists in singlicate)), 434991 (Counterscreen (V1R agonists in triplicate)), 2482 (Summary (OXTR agonists)) …; type: functional
Chain of Vasopressin V1a receptor (P37288 whole entry): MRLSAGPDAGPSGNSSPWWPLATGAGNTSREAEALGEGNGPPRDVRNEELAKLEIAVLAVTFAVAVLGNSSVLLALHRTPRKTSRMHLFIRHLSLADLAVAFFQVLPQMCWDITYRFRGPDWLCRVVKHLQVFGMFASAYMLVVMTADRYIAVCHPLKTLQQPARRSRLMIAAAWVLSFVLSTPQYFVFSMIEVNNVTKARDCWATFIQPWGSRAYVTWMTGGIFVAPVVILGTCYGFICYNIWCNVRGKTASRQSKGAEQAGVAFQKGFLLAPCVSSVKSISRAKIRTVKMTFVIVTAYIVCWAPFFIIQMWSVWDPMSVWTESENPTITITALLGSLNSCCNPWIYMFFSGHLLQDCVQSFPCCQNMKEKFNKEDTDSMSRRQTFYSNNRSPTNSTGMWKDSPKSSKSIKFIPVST

Chain of Procathepsin L (P07711 whole entry): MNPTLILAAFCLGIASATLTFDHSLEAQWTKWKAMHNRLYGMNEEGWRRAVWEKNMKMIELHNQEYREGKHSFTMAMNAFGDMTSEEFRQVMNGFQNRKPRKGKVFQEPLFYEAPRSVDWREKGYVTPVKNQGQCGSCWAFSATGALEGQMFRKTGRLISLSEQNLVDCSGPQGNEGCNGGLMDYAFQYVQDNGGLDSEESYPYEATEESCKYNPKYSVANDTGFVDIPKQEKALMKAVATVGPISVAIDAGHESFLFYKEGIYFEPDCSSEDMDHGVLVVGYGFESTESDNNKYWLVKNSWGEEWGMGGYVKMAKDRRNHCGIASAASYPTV

COc1cc([N+](=O)[O-])ccc1N=C(S)Nn1cnnc1
IC50 [1]: > 59.6 µM (not active) | IC50 [2]: 0.854 µM (active)

O=C(CSc1nccn1-c1ncc(C(F)(F)F)cc1Cl)c1ccc(Br)cc1
IC50 [3]: > 66.6 µM (inactive) | EC50 [4]: 0.233 µM (active) | EC50 [5]: 7.85 µM (active) | EC50 [6]: 0.247 µM (active) | IC50 [7]: > 66.6 µM (inactive)

c1nc2cc(Cc3ccc4[nH]cnc4c3)ccc2[nH]1
CC50 [8]: > 50 µM (active) | IC50 [9]: 44.5 µM (active)

Cc1ccc2nsnc2c1NC(=O)c1ccc(-c2cc(Cl)ccc2Cl)o1
EC50 [10]: 3.86 µM (inconclusive) | IC50 [11]: 18 µM (active) | EC50 [12]: 6.11 µM (inconclusive) | IC50 [13]: 4.64 µM (active) | EC50 [14]: > 55.7 µM (not active) | EC50 [15]: 14.4 µM (inconclusive) | EC50 [16]: 5.89 µM (active)

COc1ccc(C(c2cc3c(cc2O)OCO3)N2CCCCC2)c(OC)c1 (stereo unspecified)
IC50 [17]: > 40 µM (not active)

O=C(O)c1cccnc1Nc1cccc(SC(F)(F)F)c1
IC50 [18]: 0.964 µM (active)

CCC12C=C(/C=C/c3ccccc3)C(CC)(C1)C(c1ccccc1)CC2=O (stereo unspecified)
AC50 [19]: 6.31 µM (inconclusive) | AC50 [20]: 1.58 µM (inconclusive)

CCN1CCCC1CNC(=O)C1CCN(Cc2nc(-c3cccc(Br)c3)oc2C)CC1 (stereo unspecified)
IC50 [21]: 6.51 µM (active)

COc1ccc2c(Cl)c(C(=O)N/N=C3\CCCC(=O)C3)sc2c1
IC50 [22]: 26.2 µM (not active) | AC50 [23]: 1.98 µM (active) | IC50 [24]: > 55.9 µM (not active)

Oc1ccc(Cl)cc1CNCc1ccc(Cl)nc1
EC50 [25]: 19.5 µM (not active) | EC50 [26]: 17.5 µM (not active)
